Assay results as given in patent publication US5457182A (Merck & Co., Inc., priority 1994, dated 1995).
“Also recorded” adds a separate entry of the source. Values belong to the compound of their own block, whether it stands above or below them.

Key:
FKBP12.6 [1] = molecular target: T1, FKBP12.6 (Bos taurus, UniProt P68107); assay: [3H]dihydroFK-506 direct binding (LH-20 assay), Scatchard, FKBP12.6; set-up: species or system bovine (calf brain); details: direct binding data, Scatchard format
T1 construct: The FKBP12.6 protein has been isolated and purified from calf brain; from tissue; host or cells: calf brain cytosol
T1 sequence (P68107 whole entry): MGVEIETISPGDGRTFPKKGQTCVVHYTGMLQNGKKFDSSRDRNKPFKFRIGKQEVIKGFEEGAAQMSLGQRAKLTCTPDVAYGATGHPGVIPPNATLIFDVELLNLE
Method: (§1) The basic LH-20 binding assay was performed as described by Handschumacher,R., et al., Science, 226, 544-547 (1984) with the modifications noted in Siekierka, J., et al., Nature, 341, 755-757 (1989).

FKBP12 = FKBP12 (Homo sapiens, UniProt P62942); assay: [3H]dihydroFK-506 direct binding, FKBP12; details: unit inferred
FKBP12, sequence (P62942 whole entry, species assumed): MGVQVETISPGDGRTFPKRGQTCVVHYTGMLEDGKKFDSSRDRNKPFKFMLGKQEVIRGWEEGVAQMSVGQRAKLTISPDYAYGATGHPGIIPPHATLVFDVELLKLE
Method: as §1

JURKAT cells = assay: IL-2 secretion in JURKAT cells stimulated with PMA and ionomycin; assay type: cell-based, human
[2] = FK-506 specific binding activity of FKBP12.6 preparations (LH-20 assay)
Method: However, FKBP12.6 is separated completely from authentic FKBP12 in Step II by chromatography on the CM-450M column. FKBP12.6 remains bound to the CM column while FKBP12 flows through during loading and washing. FKBP12.6 elutes from the column between 100 and 200 mM NaCl and Westerns of the gradient fractions using the anti-C-terminal peptide antibody confirm that there is no trace of FKBP12 present in the FKBP12.6 fractions. Because of the presence of FKBP12 in the S200, the recovery of FKBP12.6 may only be calculated from the CM-450M step forward using the standard LH-20 binding assay (Handschumacher, R., et al., Science. 226, 544-547 (1984)).
Starting with approximately 60 grams of protein in the crude cytosolic brain extract, a typical yield after purification is about 50 μg of homogeneous FKBP12.6 (see Table I). […] FKBP12.6 was eluted from the resin with 4M guanidine-HCl and renatured by dialysis. […] This calculates to a 3,271-fold purification from the CM-450M step. Because the CM-450M step removes 94% of the protein from the crude extract, the overall s purification from the S200 is actually much greater. In calf brain cytosol then, FKBP12.6 is clearly much less abundant than FKBP12 is in calf thymus which was purified from that tissue 337-fold to homogeneity with almost the identical recovery (Siekierka, J., et al., Nature, 341, 755-757 (1989)). […] A second explanation for the lower than expected binding is that the LH-20 assay used to estimate binding is not an equilibrium binding assay and ligand off-rates will result in lower calculated specific binding activities. A third explanation is that all of the FKBP12.6 may not be […] properly and the […] protein may not bind effectively.
as §1

[3] = Peptidyl-prolyl cis-trans isomerase (PPIase) activity; assay type: biochemical
Method: (§2) PPIase assays were performed as described (Fischer, G., et al., Nature, 337,476-478 (1989)) with the following changes: the peptide substrate used was N-succinyl-Ala-Leu-Pro-Phe-p-nitroanilide (BACHEM, California) at a final concentration of 72 μM and chymotrypsin (Sigma) was present in the assay at a concentration of 6 μM. The total reaction volume was 1.5 ml. The release of p-nitroanilide by chymotrypsin was measured by following the increase in absorbance at 405 nm on a Beckman DU68 spectrophotometer. After an initial rapid rise in absorbance due to hydrolysis of the trans peptide, the slow secondary increase in absorbance which reflects the cis-to-trans conversion of the peptide by the PPIase was measured at 3 sec intervals out to 1.5 min. The data were fitted to a simple first-order rate equation and the first-order rate constant, k (s^-1), calculated.

calcineurin [4] = assay: Calcineurin phosphatase assay; assay type: biochemical, bovine
Method: For a side-by-side comparison, FKBP12 was also tested for its ability to inhibit calcineurin in the presence of drug.
The calcineurin phosphatase assay is a modified version of previous assays (Liu, J., et al., Cell, 66, 807-815 (1991); Manalan, A., et al., Proc. Natl. Acad. Sci. U.S.A., 80, 4291-4295 (1983)). Reaction mixtures ([…] contained: 40 mM Tris (pH 8), 100 mM NaCl, 6 mM Mg(OAc)2, 0.1 mM CaCl2, 0.1 mg/ml BSA, 0.5 mM dithiothreitol, 190 nM bovine brain calmodulin (Sigma), 3 nM bovine brain calcineurin (Sigma), and 40 μM [^33 P]RII peptide (Peptides International) (600 cpm/pmole). Reaction mixtures were pre-incubated for 30 min at 30° C. prior to addition of the labeled peptide. The reaction was initiated by addition of the peptide and the dephosphorylation reaction was allowed to proceed for 10 min at 30° C. The reaction was terminated by the addition of 0.5 ml of 5% trichloroacetic acid containing 100 mM sodium phosphate (stop buffer) and applied to a 0.5 ml Dowex 50W-X8, H^+ column. Free [^33 P]phosphate was eluted from the column with 0.5 ml of stop buffer followed by 0.5 ml of water.

calcineurin [5] = assay: FKBP.FK-506.CaN complex-formation assay (size-exclusion column, Western analysis); assay type: binding, bovine; details: Ca^2+
Method: In the modified assay, samples were assayed by Western analysis using the anti-C-terminal peptide antibody in order to identify FKBP12 and FKBP12.6 in various chromatographic fractions.
In the first experiment, FKBP12 and FKBP12.6 were partially purified by preparative HPLC gel filtration chromatography on a Bio-Sil TSK-125 column. These partially purified FKBPs (containing both FKBP12 and FKBP12.6) are devoid of CaN which separates completely from them on this column. FKBP12 and FKBP12.6 co-elute at fractions 26 and 27 on the analytical sizing column (G2000SW) used in this experiment. […] Because this crude FKBP material also contains FKBP12.6, it can also be observed migrating slightly above FKBP12 in FIG. 4A.
To more carefully examine the requirements for FKBP12.6 complex formation with CaN, experiments were conducted using purified FKBP12.6.
The incubation buffer contained 20 mM Tris (pH 7.5), 100 mM NaCl, 6 mM MgCl2, 0.1 mM CaCl2, 0.1 mg/ml BSA, and 0.5 mM dithiothreitol. The incubation reaction was chromatographed on a Bio-Sil SEC400 HPLC column (Bio-Rad) at a flow rate of 1 ml/min and 1 min fractions were collected. The chromatography buffer was the same as the incubation buffer except that BSA was omitted. 30 μl of fractions 19-29 were subjected to electrophoresis on a 16% Novex Tris-Glycine gel and Western analysis was performed as described above.

Heat stability = assay type: physicochemical
[6] = FK-506 specific binding activity of FKBP12.6 preparations (LH-20 assay); details: Step II. CM-650M
FKBP12.6 [7] = molecular target: T1, FKBP12.6; assay: Inhibition of PPIase activity of FKBP12.6; assay type: biochemical, bovine (calf brain)
Method: as §2

[8] = literature; cited from earlier work
[9] = partially purified FKBP12.6 (Step VI)

- Kd (FKBP12.6 [1]): 0.55 nM
- Kd (FKBP12): 0.4 nM
Compound: [3H]CC([3H])C[C@@H]1/C=C(\C)C[C@H](C)C[C@H](OC)[C@H]2O[C@@](O)(C(=O)C(=O)N3CCCC[C@H]3C(=O)O[C@H](/C(C)=C/[C@@H]3CC[C@@H](O)[C@H](OC)C3)[C@H](C)[C@@H](O)CC1=O)[C@H](C)C[C@@H]2OC (stereo partly drawn) [[^3 H]dihydroFK-506]
- inhibition of IL-2 secretion (JURKAT cells; JURKAT cells, PMA and ionomycin): potent inhibitor
- potency relative to parent compound (times less potent) (JURKAT cells; inhibition of IL-2 secretion, parent FK-506): 5 times

- FK-506 Binding (ng FK-506 bound/mg protein) ([2]; Step III. TSK-125 HPLC): 4.23 ng FK-506 bound/mg protein
- FK-506 Binding (ng FK-506 bound/mg protein) ([2]; Step IV. CM-3SW HPLC): 13.3 ng FK-506 bound/mg protein
- FK-506 Binding (ng FK-506 bound/mg protein) ([2]; Step V. Phenyl-5PW HPLC): 52.85 ng FK-506 bound/mg protein
- FK-506 Binding (ng FK-506 bound/mg protein) ([2]; Step VI. G2000SW HPLC, about 25% pure): 1278.3 ng FK-506 bound/mg protein
- FK-506 Binding (ng FK-506 bound/mg protein) ([2]; Step VII. FK-506 Affinity): 4874.0 ng FK-506 bound/mg protein
- theoretical specific binding activity ([2]; assuming mass of 12.6 kDa and 1 mole FK-506 per mole protein): 64 mg of [^3 H]dihydroFK-506 per
- retention of binding to FK-506 ([2]; renatured material): retains binding to FK-506
- IC50 (calcineurin [4]; in presence of FK-506, CaN, CaM, Ca^2+, Mg^2+, read-out: IC50 for inhibition of CaN): 16 nM
- FK-506 Binding (ng FK-506 bound/mg protein) [6]: 1.49 ng FK-506 bound/mg protein
Compound: FKBP12.6: homogeneous cytosolic binding protein for FK-506, 10-12 kilodaltons, from calf brain; partial sequence SEQ ID NO: 1
- specific binding activity ([2]; FKBP12.6 characteristic, summary): about 4.8 micrograms FK-506 per mg FKBP12.6 protein
- specific binding activity ([2]; purified FKBP12.6): 4.8 μg of [^3 H]dihydroFK-506 per mg of protein
- PPIase activity compared with FKBP12 ([3]; 25% purity of FKBP12.6 factored in): virtually equivalent to that of FKBP12
- PPIase activity ([3]; Example 4): low, but significant PPIase activity
- PPIase activity ([3]; material from step VI): did have PPIase activity
- PPIase activity ([3]; renatured material (Step VII)): did not have PPIase activity
- ability to block CaN phosphatase activity relative to FKBP12 (calcineurin [4]; in presence of FK-506, FIG. 5): almost equipotent to FKBP12
- complex formation with CaN (calcineurin [5]; partially purified FKBPs, CaM, Mg^2+ and FK-506): Most of the FKBP12.6 is shifted to a high molecular weight complex
- complex formation with CaN (calcineurin [5]; purified FKBP12.6, CaM, Mg^2+ and FK-506): all of the immunoreactive FKBP12.6 is shifted to fractions (20-22)
- complex formation with CaN (calcineurin [5]; purified FKBP12.6, CaM, Mg^2+, without FK-506): continues to elute at fractions 26 and 27
- stability to heating (Heat stability; 56° C. for 30 minutes): not stable upon heating; also recorded: unstable to heating
- effect of heat-treatment step (Heat stability; cytosolic extract from calf brain): complete loss of FKBP12.6

Compound: C=CCC1C=C(C)CC(C)CC(OC)C2OC(O)(C(=O)C(=O)N3CCCCC3C(=O)OC(C(C)=CC3CCC(O)C(OC)C3)C(C)C(O)CC1=O)C(C)CC2OC (stereo not drawn) [FK-506, 17-allyl-1,14-dihydroxy-12-[2'-(4"-hydroxy-3"-methoxycyclohexyl)-1'-methylvinyl]-23,25-dimethoxy-13,19,21,27-tetramethyl-11,28-dioxa-4-azatricyclo-[22.3.1.0^4,9]octacos-18-ene-2,3,10,16-tetraone]
- specific inhibition of FKBP12.6 PPIase activity (FKBP12.6 [7]; Example 4): specifically inhibited by FK-506
- inhibition of PPIase activity of FKBP12.6 (FKBP12.6 [7]; [9]): potent inhibitors
- neurological toxicities [8]: neurological toxicities, which include drowsiness, lethargy, tremors, and aggressiveness

Compound: CO[C@H]1C[C@@H]2CC[C@@H](C)[C@@](O)(O2)C(=O)C(=O)N2CCCC[C@H]2C(=O)O[C@H]([C@H](C)C[C@@H]2CC[C@@H](O)[C@H](OC)C2)CC(=O)[C@H](C)/C=C(\C)[C@@H](O)[C@@H](OC)C(=O)[C@H](C)C[C@H](C)/C=C/C=C/C=C/1C [rapamycin]
- inhibition of PPIase activity of FKBP12.6 (FKBP12.6 [7]; [9]): potent inhibitors
- inhibition of PPIase activity relative to FK-506 (FKBP12.6 [7]; [9]): somewhat better inhibitor than FK-506
